Reference: ChEMBL document CHEMBL5724696, “Autophagy assay results for EUbOPEN Chemogenomics Library” (2024)
Several values for one entry are separate records, joined by “and”; a condition that tells them apart may be missing. Equal entries are not always repeated.

Tested on: TERT-RPE1
Test: Here: values are normalized to the negative (DMSO; defined as 0% autophagy induction) and positive (250nM Torin1; mTOR inhibitor; defined as maximal inducer of autophagy = 100%) control compounds and represented as % of autophagy induction. […] The impact of autophagy induction on cells is complex and depends on the affected target. As such, the magnitude of a phenotype may not be equally mirrored in the %-value of autophagy induction and vice versa. The dynamics of the induction may indicate the mode of activation: e.g. activation via phosphorylation or a signaling cascade may occur fast, while activation via transcription factors may take considerably longer. […] Of note, treatment concentrations may be sub-optimal for specific compounds, leading to false negative annotations.
Assay type: functional, Homo sapiens
Conditions: Culturing Media DMEM/F12 (1:1), 1 % Penicillin/Streptomycin, 10% Fetal bovin serum Add-On: No, Screening Media Control DMEM/F12 (1:1), Screening Media Samples DMEM/F12 (1:1)
[1] = Compound Concentration 10 uM, Timepoint 12 hours
[2] = Compound Concentration 10 uM, Timepoint 24 hours
[3] = Compound Concentration 10 uM, Timepoint 36 hours
[4] = Compound Concentration 10 uM, Timepoint 60 hours
[5] = Compound Concentration 1 uM, Timepoint 12 hours
[6] = Compound Concentration 1 uM, Timepoint 24 hours
[7] = Compound Concentration 1 uM, Timepoint 36 hours
[8] = Compound Concentration 1 uM, Timepoint 60 hours

| Structure (SMILES) | autophagy induction [5] | autophagy induction [6] | autophagy induction [7] | autophagy induction [8] | further results |
| --- | --- | --- | --- | --- | --- |
| CCC(C)N(C)C(=O)c1cc2ccccc2c(-c2ccccc2Cl)n1 (stereo unspecified) [PK-11195] | – | – | – | – | autophagy induction [1]: -6.134%; autophagy induction [2]: 6.633%; autophagy induction [3]: 20.4099%; autophagy induction [4]: 30.5956% |
| CCOC(=O)c1ccc(C#Cc2ccc3c(c2)C(C)(C)CCS3)nc1 [TAZAROTENE] | -17.2771% | -27.562% | -16.2551% | 40.4791% | – |
| COc1ccc(OC(=O)N(CC(=O)O)Cc2ccc(OCCc3nc(-c4ccccc4)oc3C)cc2)cc1 [MURAGLITAZAR] | 84.7945% | -9.438% | 5.064% | -9.533% | – |
| CC[C@H]1[C@@H](O)[C@@H]2[C@H](CC[C@]3(C)[C@@H]([C@H](C)CCC(=O)O)CC[C@@H]23)[C@@]2(C)CC[C@@H](O)C[C@@H]12 [OBETICHOLIC ACID] | -8.507% | -7.962% | -3.9436% | 2.71% | – |
| CC(C=CC1=C(C)CCCC1(C)C)=CC=CC(C)=CC(=O)O | -29.8215% | -16.487% | 10.9979% | 39.1731% | – |
| C[C@H](CCOc1cccc(CC(=O)O)c1)N(Cc1cccc(C(F)(F)F)c1Cl)CC(c1ccccc1)c1ccccc1.Cl | -13.5866% | 1.703% | 15.8521% | -16.0779% | – |
| CCOC(=O)C1Cc2ccccc2CN1C(=O)c1ccc(SC)s1 (stereo unspecified) | 141.578% | -7.836% | 8.933% | -16.4137% | – |
| CN(CCOc1ccc(CC2SC(=O)NC2=O)cc1)c1ccccn1 (stereo unspecified) [ROSIGLITAZONE] | -11.8893% | 0.9014% | 16.9691% | -11.1596% | – |
| Clc1ccc(-c2nc3sccn3c2/C=N/OCc2ccc(Cl)c(Cl)c2)cc1 | -153.599% | -9.053% | 9.503% | -19.9955% | – |
| Cc1cc(SCc2sc(-c3ccc(C(F)(F)F)c(F)c3)nc2C)ccc1OCC(=O)O | -0.9501% | -2.27% | 3.329% | -6.099% | – |
| CN1CCN(c2ccc(/C=C(\C#N)c3ccccc3Br)cc2)CC1.Cl.Cl | -7.74% | -11.503% | -8.5159% | 1.827% | – |
| CC(C)OC(=O)C1=CN(C(=O)c2ccc(F)c(F)c2)CC(C)(C)c2c1[nH]c1ccccc21 [TUROFEXORATE ISOPROPYL] | -4.447% | -6.097% | -6.537% | 2.1006% | – |
| O=C(O)c1cc(F)c2nc(N3[C@@H]4CC[C@H]3C[C@@H](OCc3c(-c5ccccc5OC(F)(F)F)noc3C3CC3)C4)sc2c1 [TROPIFEXOR] | -16.0144% | -6.889% | 7.971% | -23.0565% | – |
| CC(C)c1cc(Oc2c(Cl)cc(-n3nc(C#N)c(=O)[nH]c3=O)cc2Cl)n[nH]c1=O [RESMETIROM] | -11.5681% | 0.0003786% | 17.8213% | -19.2681% | – |
| CCCCc1oc2ccccc2c1C(=O)c1cc(I)c(OCCN(CC)CC)c(I)c1.Cl [AMIODARONE HYDROCHLORIDE] | -399.679% | -0.6341% | 14.6432% | -20.4662% | – |
| CCO[C@H](COc1ccc(C(F)(F)F)cc1)CSc1ccc(OCC(=O)[O-])c(C)c1.[Na+] | 0.706% | -0.6859% | 2.912% | 3.397% | – |
| CCO[C@@H](Cc1ccc(OCCc2ccc(OS(C)(=O)=O)cc2)cc1)C(=O)O [TESAGLITAZAR] | -2.81% | -1.872% | 4.96% | 2.851% | – |
| CCOC(=O)Nc1ccc2c(c1)N(C(=O)CN(CC)CC)c1ccccc1CC2 | -0.6682% | 2.4649% | 6.3561% | 1.708% | – |
| CC(C)(C[C@H]1CN(S(=O)(=O)c2cccc(C(F)(F)F)c2)c2cc(-c3cc(F)cc(OC(F)F)c3)ccc2O1)C(=O)O [CINTIRORGON] | -13.5912% | -2.372% | 17.7364% | -18.8569% | – |
| CC1(C)C(=O)C(C)(C)c2cc(C(=O)Nc3ccc(C(=O)O)cc3)ccc21 | -15.7037% | -5.578% | 15.5375% | -28.4557% | – |
| CC(C)(Sc1ccc(CCN(CCCCC2CCCCC2)C(=O)NC2CCCCC2)cc1)C(=O)O [GW7647] | -14.4765% | -1.331% | 15.0253% | -17.5748% | – |
| COc1cc(O)c(C(CC(=O)N2C[C@H](C)C[C@H](C)C2)c2ccc3c(c2)OCO3)c(OC)c1 (stereo partly specified) | – | – | – | – | autophagy induction (Compound Concentration 1 uM, Timepoint 12 hours, 12 h, 1 µM): -12.9989% and -4.38%; autophagy induction (Compound Concentration 1 uM, Timepoint 24 hours, 24 h, 1 µM): -0.5632% and -3.782%; autophagy induction (Compound Concentration 1 uM, Timepoint 36 hours, 36 h, 1 µM): 12.4792% and 2.693%; autophagy induction (Compound Concentration 1 uM, Timepoint 60 hours, 60 h, 1 µM): -12.6071% and -5.875% |
| O=c1[nH]c2ccccc2n1CCCN1CCN(C(c2ccccc2)c2ccccc2)CC1 [OXATOMIDE] | – | – | – | – | autophagy induction [1]: 12.1676%; autophagy induction [2]: 23.0166%; autophagy induction [3]: 23.6799%; autophagy induction [4]: -2.469% |
| OC(c1ccc(-c2ccc(CN3CCN(Cc4ccncc4)CC3)cc2)c(F)c1)(C(F)(F)F)C(F)(F)F | -2.122% | -7.771% | -2.839% | 2.172% | – |
| CC1(C)CCC(C)(C)c2cc(C(=O)Nc3ccc(C(=O)O)cc3)ccc21 | -16.8061% | -23.3221% | -14.7294% | 28.5347% | – |
| O=C(O)c1ccnc(N2CC(O)(c3ccc(OCc4c(-c5c(Cl)cccc5Cl)noc4C4CC4)cc3Cl)C2)c1 [CILOFEXOR] | 6.577% | 4.142% | 10.1768% | 9.429% | – |
| CCOP(=O)(OCC)C(=Cc1cc(C(C)(C)C)c(O)c(C(C)(C)C)c1)P(=O)(OCC)OCC | -14.535% | -0.01812% | 17.6383% | -21.9097% | – |
| Cc1nc(-c2ccc(C(F)(F)F)cc2)sc1C(=O)NCc1ccc(OC(C)(C)C(=O)O)cc1 [GW590735] | -16.082% | -2.956% | 16.0196% | -2.481% | – |
| C[C@H]1[C@H]2CC[C@H]3[C@@H]4CC=C5C[C@@H](N(C)C)CC[C@]5(C)[C@H]4CC[C@]23CN1C [CONESSINE] | -9.079% | -15.7832% | -16.9143% | 14.1244% | – |
